Measured values from the NIST ThermoML archive (doi:10.1016/j.fluid.2017.03.008).

Columns and labels:
[1] = xn = mol fraction of the nth substance listed; details: for surface tension liquid-gas: Ring tensiometer; for viscosity / mass density: 101.3 kPa, Liquid; for viscosity: Capillary tube (Ostwald / Ubbelohde) method; for mass density: Vibrating tube method
[2] = refractive index (Na D-line) (dimensionless); xn = mol fraction of the nth substance listed; details: 101.3 kPa, Liquid, Standard Abbe refractometry

C[N+](C)(C)CCO.[Cl-] [choline chloride] + NCCO
Details	mass density, [1] [kg/m3]	refractive index, [2]	surface tension liquid-gas, [1] [mN/m]	viscosity, [1] [mPa·s]
298.15 K, x1 = 0.11	1062.8	1.47733	49.6	32.7
298.15 K, x1 = 0.13	1065	1.47875	49.2	37.7
298.15 K, x1 = 0.14	1069	1.48117	48.7	36.7
298.15 K, x1 = 0.16	1076.7	1.48388	48.2	48.5
308.15 K, x1 = 0.11	1055.2	1.47404	48.8	22.6
308.15 K, x1 = 0.13	1057.6	1.47541	48.5	25.5
308.15 K, x1 = 0.14	1061.7	1.47797	48	25
308.15 K, x1 = 0.16	1069.6	1.47998	47.6	28.8
318.15 K, x1 = 0.11	1047.8	1.47092	47.9	15
318.15 K, x1 = 0.13	1050.3	1.47217	47.8	13.8
318.15 K, x1 = 0.14	1054.4	1.47445	47.4	16.8
318.15 K, x1 = 0.16	1062.7	1.47623	46.9	20.1
328.15 K, x1 = 0.11	1040.4	1.46759	47.2	10.5
328.15 K, x1 = 0.13	1043	1.46908	47.1	10.1
328.15 K, x1 = 0.14	1047.2	1.47101	46.7	11.2
328.15 K, x1 = 0.16	1055.9	1.47257	46.2	13.5
338.15 K, x1 = 0.11	1033	1.46419	46.4	7.1
338.15 K, x1 = 0.13	1035.6	1.46539	46.4	7.9
338.15 K, x1 = 0.14	1039.9	1.46761	46	8.8
338.15 K, x1 = 0.16	1049	1.46842	45.6	9.8
348.15 K, x1 = 0.11	1025.6	1.46095	45.8	5.9
348.15 K, x1 = 0.13	1028.3	1.46171	45.8	6
348.15 K, x1 = 0.14	1032.6	1.46444	45.3	6.6
348.15 K, x1 = 0.16	1042	1.46421	45	7.5
358.15 K, x1 = 0.11	1018.1	1.45742	45	4.7
358.15 K, x1 = 0.13	1020.9	1.45833	44.9	5.2
358.15 K, x1 = 0.14	1025.3	1.46049	44.7	5.3
358.15 K, x1 = 0.16	1035	1.46031	44.4	5.9

C[P+](c1ccccc1)(c1ccccc1)c1ccccc1.[Br-] [methyltriphenylphosphonium bromide] + NCCO
Details	mass density, [1] [kg/m3]	refractive index, [2]	surface tension liquid-gas, [1] [mN/m]	viscosity, [1] [mPa·s]
298.15 K, x1 = 0.11	1092.9	1.50265	50.3	27.7
298.15 K, x1 = 0.13	1099.8	1.50587	50.2	28
298.15 K, x1 = 0.14	1107.4	1.51187	49.3	35.5
298.15 K, x1 = 0.16	1195.8	1.56644	48.9	128.9
308.15 K, x1 = 0.11	1085	1.49911	49.5	20
308.15 K, x1 = 0.13	1091.9	1.50221	49.3	20
308.15 K, x1 = 0.14	1100	1.50794	48.4	20.7
308.15 K, x1 = 0.16	1187.9	1.56247	48	84.9
318.15 K, x1 = 0.11	1077.1	1.49546	48.6	13.6
318.15 K, x1 = 0.13	1083.8	1.49935	48.2	13.1
318.15 K, x1 = 0.14	1092.2	1.50501	47.6	13.6
318.15 K, x1 = 0.16	1180.1	1.55846	47.2	37.9
328.15 K, x1 = 0.11	1068.9	1.49224	47.8	9.5
328.15 K, x1 = 0.13	1075.8	1.49519	47.2	9.1
328.15 K, x1 = 0.14	1084.2	1.50071	46.7	10
328.15 K, x1 = 0.16	1172.3	1.55518	46.4	25.4
338.15 K, x1 = 0.11	1060.8	1.48802	46.9	7
338.15 K, x1 = 0.13	1067.6	1.49063	46.3	6.9
338.15 K, x1 = 0.14	1076.1	1.49733	45.9	7.5
338.15 K, x1 = 0.16	1164.5	1.55159	45.6	15.6
348.15 K, x1 = 0.11	1052.7	1.48405	46.2	5.4
348.15 K, x1 = 0.13	1059.4	1.48631	45.3	5.4
348.15 K, x1 = 0.14	1068	1.49343	44.9	5.6
348.15 K, x1 = 0.16	1156.6	1.54699	44.8	10.7
358.15 K, x1 = 0.11	1044.7	1.47988	45.3	4.7
358.15 K, x1 = 0.13	1051.1	1.48215	44.4	4.8
358.15 K, x1 = 0.14	1059.8	1.49027	44.2	4.9
358.15 K, x1 = 0.16	1148.8	1.54286	44	9.1

CCCC[N+](CCCC)(CCCC)CCCC.[Br-] [tetrabutylammonium bromide] + NCCO
Details	mass density, [1] [kg/m3]	refractive index, [2]	surface tension liquid-gas, [1] [mN/m]	viscosity, [1] [mPa·s]
298.15 K, x1 = 0.14	1048.1	1.48383	36.1	22
298.15 K, x1 = 0.16	1056.6	1.4877	36	52.9
298.15 K, x1 = 0.2	1060.9	1.4881	35.8	80.2
298.15 K, x1 = 0.25	1061.6	1.49229	35.7	106.8
308.15 K, x1 = 0.14	1038.7	1.48033	35.7	15.5
308.15 K, x1 = 0.16	1048	1.48423	35.6	31
308.15 K, x1 = 0.2	1053.6	1.48464	35.4	54.7
308.15 K, x1 = 0.25	1054.5	1.48876	35.3	77
318.15 K, x1 = 0.14	1028.9	1.47704	35.4	12
318.15 K, x1 = 0.16	1041.5	1.48115	35.2	21.1
318.15 K, x1 = 0.2	1046.4	1.48169	35	38.2
318.15 K, x1 = 0.25	1047.3	1.48547	34.8	53.57
328.15 K, x1 = 0.14	1018.5	1.47349	35.1	9
328.15 K, x1 = 0.16	1034.1	1.47778	34.9	14.4
328.15 K, x1 = 0.2	1039.2	1.47851	34.6	20.1
328.15 K, x1 = 0.25	1040.2	1.48242	34.5	35.29
338.15 K, x1 = 0.14	1010.2	1.46989	34.7	6.8
338.15 K, x1 = 0.16	1026.7	1.47385	34.6	9
338.15 K, x1 = 0.2	1032	1.47541	34.3	13.4
338.15 K, x1 = 0.25	1033.1	1.47966	34	18.6
348.15 K, x1 = 0.14	1001.1	1.46595	34.4	5.7
348.15 K, x1 = 0.16	1019.3	1.46989	34.2	7.5
348.15 K, x1 = 0.2	1024.7	1.47164	33.9	10.5
348.15 K, x1 = 0.25	1026.1	1.47651	33.6	13.8
358.15 K, x1 = 0.14	992.1	1.46234	34.1	5.2
358.15 K, x1 = 0.16	1012	1.46632	33.9	5.2
358.15 K, x1 = 0.2	1017.4	1.46897	33.5	8
358.15 K, x1 = 0.25	1019	1.47303	33.2	10.2
